Experiments:
B. subtilis = assay: Anti bacterial and antifungal activity test; assay type: cell-based; conditions: in DMSO, 37° C. 24 hours
Protocol: (§1) ANTI BATERIAL AND ANTIFUNGAL ACTIVITY TEST
(§2) Sterile medium of Bacto Muller Hinton was melted at 45-50° C. and poured (25 ml) into a sterile Petric dish (100 mm in diameter), and was left at room temperature for 1 hour. The sterility was checked by overnight incubation (37° C.). The media was immediately used. The microorganism used was gram positive and gram negative. The drug solutions of 0.1, 0.2 and 0.4% in DMSO were used. Incubation was performed at 37° C. for 24 hours.

C. albicans = assay: Anti bacterial and antifungal activity test; assay type: cell-based; conditions: in DMSO, 37° C. 24 hours
Protocol: as §1, §2

S. Aureus = assay: Anti bacterial and antifungal activity test; assay type: cell-based; conditions: in DMSO, 37° C. 24 hours
Protocol: as §1, §2

S. pheumoniae = assay: Anti bacterial and antifungal activity test; assay type: cell-based, S. pneumoniae; conditions: in DMSO, 37° C. 24 hours
Protocol: as §1, §2

carragenin rat paw edema = assay: Anti inflammatory activity test (Winter, 1962), carragenin rat paw edema; assay type: in vivo, Wistar rats; conditions: peroral in CMC 1%, inhibition of rat paw edema volume, doses 10-80 mg/kg bw
Excerpt: ANTI INFLAMMATORY ACTIVITY TEST (WINTER, 1962)
Carragenin was used as an inflammatory agent. The volum inhibition of rat paw edema following peroral administration of various doses of the sysnthetic compounds in 1% CMC in comparison to that of control was used to determine the activity of the compounds. In order to evaluate the anti-inflammatory of each compound. Wistar rats (body weight ranging from 200-250 g) were used and divided randomly into 5 groups: one group served as or control and 4 groups were treatment groups. The control group received the vehicle CMC; (Carboxy Methyl Cellulose […]), while the treatment groups received the synthetic compound per orally in CMC 1%. Doses of 10, 20, 40 and 80 mg/kg bw were given to the animals. Where one hour later the animals received a subplantar injection of 0.05 ml of carragenin suspension in saline solution (NaCi 0.9%)- The volumes of rat paw edema were measured immediately and every half an hour following the subplantar injection for 5 hours.

[1] = test system: lipid peroxidation (microsome); assay: Anti oxidation test (Haenen and Bast, 1983), lipid peroxidation; assay type: biochemical; conditions: malondialdehyde (TBA), microsome 2 mg protein/ml, 37° C., absorbance 535 nm
Protocol: ANTI OXIDATION […], 1983) Anti oxidative activity (lipid peroxidation) was determined by measuring the reactive form of thiobarbituric acid, i.e. malondialdehyde. The synthetic compound with final concentration of 0.5; 1.0; 2.0; 4.0 microM was put into glass tubes. […] The mixture was pre-incubated at 37° C. for 5 minutes. Lipid peroxidation was initiated with the addition of ferro sulphate (0.5 ml, 10 microN) and incubated at 37° C. for 5 minutes, the reaction was stopped by addition of aliquot (0.3 ml) to the mixture of TCA, TBA, and BHT (2 ml) in cold. After heating (80° C.) for 15 minutes and centrifugation (15 minutes), absorbance was read at 535 nm.

Row | SMILES | Minimum Inhibition Concentration (B. subtilis) | Minimum Inhibition Concentration (C. albicans) | Minimum Inhibition Concentration (S. Aureus) | Minimum Inhibition Concentration (S. pheumoniae) | ED 50 (carragenin rat paw edema) | IC50 [1]
1 | O=C(C=Cc1cc(Cl)c(O)c(Cl)c1)C=Cc1cc(Cl)c(O)c(Cl)c1 [GVT-6, 1,5-bis (4-hydroxy-3,5-dichlorophenyl)-1,4-pentadiene-3-one] | 0.30% | 0.25% | 0.25% | 0.05% | – | –
2 | CCc1cc(C=C2CCCC(=Cc3cc(CC)c(O)c(CC)c3)C2=O)cc(CC)c1O [HGV-2] | – | – | – | – | 20 mg/kg.bb | 1.97 µM
3 | COc1cc(/C=C2/CCC/C(=C/c3cc(OC)c(O)c(OC)c3)C2=O)cc(OC)c1O [HGV-5] | – | – | – | – | 222 mg/kg.bb | 1.7 µM
4 | O=C1C(=Cc2cc(Cl)c(O)c(Cl)c2)CCCC1=Cc1cc(Cl)c(O)c(Cl)c1 [HGV-6] | 0.25% | 0.25% | 0.35% | 0.05% | 25 mg/kg.bb | –
5 | Cc1cc(/C=C2\CC/C(=C\c3cc(C)c(O)c(C)c3)C2=O)cc(C)c1O [PGV-1] | – | – | – | – | 86 mg/kg.bb | 2.2 µM
6 | CCc1cc(/C=C2\CC/C(=C\c3cc(CC)c(O)c(CC)c3)C2=O)cc(CC)c1O [PGV-2] | – | – | – | – | 80 mg/kg.bb | 2.21 µM
7 | COc1cc(/C=C2/CC/C(=C/c3cc(OC)c(O)c(OC)c3)C2=O)cc(OC)c1O [PGV-5] | – | – | – | – | 48 mg/kg.bb | 0.99 µM
8 | O=C1C(=Cc2cc(Cl)c(O)c(Cl)c2)CCC1=Cc1cc(Cl)c(O)c(Cl)c1 [PGV-6] | 0.20% | 0.25% | 0.25% | 0.10% | 20 mg/kg.bb | 14.9 µM

Reference: patent US6541672B1, “Derivatives of benzilidine cyclohexanone, benzilidine cyclopentanone, and benzilidine acetone and their synthesis” (Faculty of Pharmacy, The University of Gadjah Mada, priority 1997, dated 2003)
